Measurements reported in patent US20130060020A1, “Compounds useful for treating neurodegenerative disorders” (Satori Pharmaceuticals, Inc., priority 2011, published 2013).
Where two headings read alike, the source gives them in different places.

Columns and labels:
Format in all cases: cell-based
[1] = tested on: Aβ-42; experiment: Aβ-42 MSD 3-plex ELISA, conditioned media of 2B7 cells; details: Homo sapiens, 5 hours treatment
Procedure: (§1) Assays were conducted to determine the ability of a Compound of Formula I to modulate […], and Aβ-38.
(§2) Plates with capture antibodies were blocked for 1-2 hours at room temperature with 150 μL of the manufactures blocking reagent.
(§3) Cultured 2B7 cells in 96 well plate with 250 μL of media per well until confluent;
(§4) Prepared serial dilutions of compounds in DMSO at 100× the final desired concentration;
(§5) Washed wells with 2B7 cells 1× with 250 μL of media;
(§6) Diluted DMSO stocks 1:100 into media: • Added 250 μL of media containing compounds (1% DMSO) to wells with 2B7 cells for 5 hours at 37° C.
(§7) ELISA Sample Prep: • Diluted conditioned media: 1 part media with 1% DMSO and 1 part blocking buffer; • 150 μL of the 250 μL of conditioned media were used.
(§8) Prepared per manufacturer's protocol (see above). • Seven point standard curve samples were prepared that contained Aβ-42, Aβ-40, and Aβ-38. The highest concentration of Aβ-42 and Aβ-38 was 3,000 pg/mL and the highest concentration of Aβ-40 was 10,000 pg/mL. Subsequent serial dilutions were 1:3 and the final composition of each sample was 1 part blocking buffer and 1 part cell medium containing 1% DMSO.
(§9) Overnight Sample Incubation: • Blocked plates are washed 5× with MSD wash buffer with a plate washer; • […] and blocker G reagent in MSD blocking solution was added; • 25 μL of samples (1 part conditioned media containing 1% DMSO and 1 part MSD blocking buffer) were then added; • Plates were incubated overnight at 4 degrees C. or 2 hours at room temperature.
(§10) Final Wash and Readout: • Washed wells 5× with MSD wash buffer; • Added 150 μL 2×MSD read buffer; • Read with MSD imager.
(§11) Aβ peptide levels for each peptide were calculated from the standard curve using the MSD software provided with the MSD 2400 Imager. Percent vehicle values for each compound dosage were then calculated and fit to a 4 parameter curve generating IC50 values.
(§12) Conditioned media from 2B7 cells (Mayo) was collected after 5 hours of treatment and diluted with 1 volume of Meso Scale Discovery (MSD, Gaithersburg Md.) blocking buffer (1% BSA in MSD wash buffer). For total Aβ measurements, standard-bind, multi-array single spot 96 well MSD ELISA plates were coated with unlabeled 4G8 capture antibody (Covance, Princeton, N.J.) overnight at 4° C. and then blocked with 5% BSA in MSD wash buffer for 1 hour at room temperature with orbital shaking Diluted 2B7 conditioned media were added to the blocked in-house total Aβ MSD plates with SULFO-TAG 6E10 antibody (MSD). For Aβ38, 40 and 42 measurements, diluted 2B7 conditioned media were added to blocked human (6E10) Aβ 3-Plex plates (MSD). Total Aβ and Aβ 3-Plex plates were incubated for 2 hours at room temperature with orbital shaking followed by washing and reading according to the manufacturer's instructions (SECTOR® Imager 2400, MSD). Aβ concentrations were converted to percent vehicle values and used to construct dose response curves which were fitted to […] using GraphPad Prism version 5.00 for Windows, GraphPad Software, San Diego Calif. USA.

[2] = tested on: Aβ-40; experiment: Aβ-40 MSD 3-plex ELISA, conditioned media of 2B7 cells; details: Homo sapiens, 5 hours treatment
Procedure: as §1, §2, §3, §4, §5, §6, §7, §8, §9, §10, §11, §12

[3] = tested on: Notch processing (NICD); experiment: Notch assay: NICD appearance in SUP-T1 cells (western blot); details: 18 hours; for Notch % inhib: Notch inhib conc class D (1001-5000 nM); for inhibition at 5 µM: Notch inhib conc class E (>5000 nM)
Procedure: The methods for this assay are broken up into two parts. 1) Growing, dosing and lysing cells 2) Measuring Notch processing (NICD appearance) and data manipulation. Cell viability is also described (CTG). SUP-T1 cells were cultured in T75 flasks in RPMI media (Mediatech 10-041-CV) supplemented with 10% FBS and penicillin/streptomycin at 37° C. in a 5% CO2 atmosphere. One hour prior to drug treatment six well plates were seeded with 1.5 mL of media with cells at a density of 1.0×10^6 cells/mL. The DMSO serial dilutions were diluted 100 fold directly into the media with the cells and incubated for 18 hours at 37° C. After treatment 100 μL of treated cells were assayed for viability with the Promega Cell Titer Glo assay system. […] Lysates were spun at 5,000 RPM for 5 minutes and supernatants were collected and analyzed for NICD levels. […] To account for loading discrepancies each NICD band was normalized to the alpha tubulin band in that well. These values were then normalized to vehicle levels and used to plot a dose response curve. IC50 values were obtained from the dose response curves using a four parameter fit method available within Prism's GraphPad graphing suite. Luminescent data from Promega's Cell Titre Glo assay system were normalized to vehicle controls and plotted with NICD levels.

[4] = tested on: Aβ-38; experiment: Aβ-38 MSD 3-plex ELISA, conditioned media of 2B7 cells; details: Homo sapiens, 5 hours treatment
Procedure: as §1, §2, §3, §4, §5, §6, §7, §8, §9, §10, §11, §12

[5] = inflection of dose response curve, read-out: Aβ 42 DR IC50 Inflection
[6] = inflection of dose response curve, read-out: Aβ 40 DR IC50 Inflection
[7] = inflection of dose response curve, read-out: Aβ 38 DR IC50 Inflection

Row | SMILES | IC50 [1, 5] | IC50 ([1]; read-out: Aβ 42 IC50) | IC50 [2, 6] | IC50 ([2]; read-out: Aβ 40 IC50) | IC50 ([3]; Homo sapiens, NICD levels) | IC50 ([4]; read-out: Aβ 38 IC50) | Notch % inhib [3] | IC50 [4, 7] | inhibition at 5 µM ([3]; Homo sapiens)
1 | CCO[C@@H]([C@H]1C[C@@H](C)[C@H]2[C@H](O1)[C@H](O)[C@@]1(C)[C@@H]3CC[C@H]4C(C)(C)[C@@H](O[C@H]5CN(C6CCN(C7COC7)CC6)CCO5)CC[C@@]45C[C@@]35CC[C@]21C)C(C)(C)O [Compound I-35] | 100 to 500 nM | 100 to 500 nM | 1000 to 5000 nM | 1000 to 5000 nM | > 5000 nM | 501 to 1000 nM |  |  | 
2 | CCO[C@@H]([C@H]1C[C@@H](C)[C@H]2[C@H](O1)[C@H](O)[C@@]1(C)[C@@H]3CC[C@H]4C(C)(C)[C@@H](O[C@H]5CN(C6CN(CC(=O)N7CCC7)C6)CCO5)CC[C@@]45C[C@@]35CC[C@]21C)C(C)(C)O [Compound I-8] | 100 to 500 nM | 100 to 500 nM |  | 1000 to 5000 nM |  | 1000 to 5000 nM | A (A is range from 0-25%) |  | 
3 | CCO[C@@H]([C@H]1C[C@@H](C)[C@H]2[C@H](O1)[C@H](O)[C@@]1(C)[C@@H]3CC[C@H]4C(C)(C)[C@@H](O[C@H]5CN(CCNCCOC)CCO5)CC[C@@]45C[C@@]35CC[C@]21C)C(C)(C)O [Compound I-60] | 100 to 500 nM | 100 to 500 nM | 1000 to 5000 nM | 1000 to 5000 nM |  | 100 to 500 nM | A (A is range from 0-25%) | 100 to 500 nM | 
4 | CCO[C@@H]([C@H]1C[C@@H](C)[C@H]2[C@H](O1)[C@H](O)[C@@]1(C)[C@@H]3CC[C@H]4C(C)(C)[C@@H](O[C@H]5CN(C6CN(C)C6)CCO5)CC[C@@]45C[C@@]35CC[C@]21C)C(C)(C)O [Compound I-3] |  |  |  |  |  |  |  |  | 26 to 50%
5 | CCO[C@@H]([C@H]1C[C@@H](C)[C@H]2[C@H](O1)[C@H](O)[C@@]1(C)[C@@H]3CC[C@H]4C(C)(C)[C@@H](O[C@H]5CN(CCN6CCOCC6)CCO5)CC[C@@]45C[C@@]35CC[C@]21C)C(C)(C)O [Compound I-58] | 100 to 500 nM | 100 to 500 nM |  | > 5000 nM |  | 501 to 1000 nM |  |  | 26 to 50%
6 | CCO[C@@H]([C@H]1C[C@@H](C)[C@H]2[C@H](O1)[C@H](O)[C@@]1(C)[C@@H]3CC[C@H]4C(C)(C)[C@@H](O[C@H]5CN([C@@H](C)CN6CCC6)CCO5)CC[C@@]45C[C@@]35CC[C@]21C)C(C)(C)O [Compound I-76] | 1000 to 5000 nM |  |  |  |  |  | B (B is a range from 26-50%) |  | 
7 | CCO[C@@H]([C@H]1C[C@@H](C)[C@H]2[C@H](O1)[C@H](O)[C@@]1(C)[C@@H]3CC[C@H]4C(C)(C)[C@@H](O[C@H]5CN(CCN(C)CCOC)CCO5)CC[C@@]45C[C@@]35CC[C@]21C)C(C)(C)O [Compound I-61] | 100 to 500 nM | 100 to 500 nM | 1000 to 5000 nM | 1000 to 5000 nM |  | 501 to 1000 nM | A (A is range from 0-25%) |  | 
8 | CCO[C@@H]([C@H]1C[C@@H](C)[C@H]2[C@H](O1)[C@H](O)[C@@]1(C)[C@@H]3CC[C@H]4C(C)(C)[C@@H](O[C@H]5CN([C@H](C)CN6CCC6)CCO5)CC[C@@]45C[C@@]35CC[C@]21C)C(C)(C)O [Compound I-77] |  |  |  |  |  |  | A (A is range from 0-25%) |  | 
9 | CCO[C@@H]([C@H]1C[C@@H](C)[C@H]2[C@H](O1)[C@H](O)[C@@]1(C)[C@@H]3CC[C@H]4C(C)(C)[C@@H](O[C@H]5CN(C6CN(CC(=O)N(C)C)C6)CCO5)CC[C@@]45C[C@@]35CC[C@]21C)C(C)(C)O [Compound I-7] | 100 to 500 nM | 100 to 500 nM |  | 1000 to 5000 nM |  | 100 to 500 nM | A (A is range from 0-25%) |  | 
10 | CCO[C@@H]([C@H]1C[C@@H](C)[C@H]2[C@H](O1)[C@H](O)[C@@]1(C)[C@@H]3CC[C@H]4C(C)(C)[C@@H](O[C@H]5CN(C6CNC6)CCO5)CC[C@@]45C[C@@]35CC[C@]21C)C(C)(C)O [Compound I-2] | < 100 nM | 100 to 500 nM | > 5000 nM | 1000 to 5000 nM |  | 100 to 500 nM | A (A is range from 0-25%) | 100 to 500 nM | 
11 | CCO[C@@H]([C@H]1C[C@@H](C)[C@H]2[C@H](O1)[C@H](O)[C@@]1(C)[C@@H]3CC[C@H]4C(C)(C)[C@@H](O[C@H]5CN(CCN6CCC6)CCO5)CC[C@@]45C[C@@]35CC[C@]21C)C(C)(C)O [Compound I-57] | < 100 nM | 100 to 500 nM | 1000 to 5000 nM | 1000 to 5000 nM |  | 100 to 500 nM |  |  | 0 to 25%
